Test system: 772245-204-R-J1-PDC complex spheroid growth
Assay: Anticancer human tumor 772245-204-R-J1-PDC patient-derived rhabdomyosarcoma cell line growth inhibition [Asc]
Conditions: for IC50: curve of first compound; for viability, T/C: stronger effect = lower value
Procedure, shortened: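 Spheroid model: tumor line + HUVEC + hMSC. Single agents and combinations; top conc. at/near clinical Cmax (10 microM if undetermined), half-log dilutions. DMSO stocks at 800-fold test concentration.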

[1] = second compound 0.1 µM, first compound 0.0316 µM
[2] = second compound 0.1 µM, first compound 0.1 µM
[3] = second compound 0.1 µM, first compound 0.316 µM
[4] = second compound 0.1 µM, first compound 1 µM
[5] = second compound 0.316 µM, first compound 0.0316 µM
[6] = second compound 0.316 µM, first compound 0.1 µM
[7] = second compound 0.316 µM, first compound 0.316 µM
[8] = second compound 0.316 µM, first compound 1 µM
[9] = second compound 1 µM, first compound 0.0316 µM
[10] = second compound 1 µM, first compound 0.1 µM
[11] = second compound 1 µM, first compound 0.316 µM
[12] = second compound 1 µM, first compound 1 µM
[13] = second compound 3.16 µM, first compound 0.0316 µM
[14] = second compound 3.16 µM, first compound 0.1 µM
[15] = second compound 3.16 µM, first compound 0.316 µM
[16] = second compound 3.16 µM, first compound 1 µM
[17] = second compound 10 µM, first compound 0.0316 µM
[18] = second compound 10 µM, first compound 0.1 µM
[19] = second compound 10 µM, first compound 0.316 µM
[20] = second compound 10 µM, first compound 1 µM
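Further: compound exposure lasted seven days.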
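Wherever viability, T/C is given: 100% = DMSO vehicle control viability.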

Compound | IC50 (second compound 0.1 µM) | IC50 (second compound 0.316 µM) | IC50 (second compound 1 µM) | IC50 (second compound 3.16 µM) | IC50 (second compound 10 µM) | viability, T/C [1] | viability, T/C [2] | viability, T/C [3] | viability, T/C [4] | viability, T/C [5] | viability, T/C [6] | viability, T/C [7] | viability, T/C [8] | viability, T/C [9] | viability, T/C [10] | viability, T/C [11] | viability, T/C [12] | viability, T/C [13] | viability, T/C [14] | viability, T/C [15] | further results
C=CC(=O)N1CCN(c2nc(=O)n(-c3c(C)ccnc3C(C)C)c3nc(-c4c(O)cccc4F)c(F)cc23)C(C)C1 (stereo not given) + Cc1c(S(C)(=O)=O)c(-c2cc(F)cc(N3CCN(c4ccc(NS(=O)(=O)c5ccc(NC(CCN6CCC(C(=O)OCCCP(=O)(O)O)CC6)CSc6ccccc6)c(S(=O)(=O)C(F)(F)F)c5)cc4)CC3)c2)c(-c2ccc(Cl)cc2)n1C(C)C | 6.32 µM | 2.43 µM | < 0.0316 µM | 0.0579 µM | < 0.0316 µM | 85% | 79.7% | 89.5% | 67.7% | 66.9% | 69.2% | 68.2% | 59.9% | 49.9% | 43% | 44.9% | 29.3% | 41.8% | 62.3% | 37.9% | viability, T/C (second compound 0.1 µM, first compound 3.16 µM): 69.5%; viability, T/C (second compound 0.1 µM, first compound 10 µM): 38.9%; viability, T/C (second compound 0.316 µM, first compound 3.16 µM): 47.1%; viability, T/C (second compound 0.316 µM, first compound 10 µM): 11.8%; viability, T/C (second compound 1 µM, first compound 3.16 µM): 15.1%; viability, T/C (second compound 1 µM, first compound 10 µM): 15.1%; viability, T/C [16]: 26.5%; viability, T/C (second compound 3.16 µM, first compound 3.16 µM): 15.8%; viability, T/C (second compound 3.16 µM, first compound 10 µM): 5.71%; viability, T/C [17]: 48.5%; viability, T/C [18]: 41.3%; viability, T/C [19]: 41.3%; viability, T/C [20]: 30.6%; viability, T/C (second compound 10 µM, first compound 3.16 µM): 13.5%; viability, T/C (second compound 10 µM, first compound 10 µM): 6.87%
COc1c(OCCCN2CCOCC2)ccc2c3n(c(=NC(=O)c4cnc(N)nc4)nc12)CCN3 + Cc1c(S(C)(=O)=O)c(-c2cc(F)cc(N3CCN(c4ccc(NS(=O)(=O)c5ccc(NC(CCN6CCC(C(=O)OCCCP(=O)(O)O)CC6)CSc6ccccc6)c(S(=O)(=O)C(F)(F)F)c5)cc4)CC3)c2)c(-c2ccc(Cl)cc2)n1C(C)C | 0.0575 µM | 0.0485 µM | 0.0212 µM | < 0.00316 µM | < 0.00316 µM | 55.7% | 45.2% | 27.1% | 18.8% | 55.4% | 36.8% | 18.4% | 11.6% | 44.8% | 24.9% | 12.7% | 6.44% | 29.4% | 19.3% | 11.5% | viability, T/C (second compound 0.1 µM, first compound 0.00316 µM): 82.5%; viability, T/C (second compound 0.1 µM, first compound 0.01 µM): 73.1%; viability, T/C (second compound 0.316 µM, first compound 0.00316 µM): 64.2%; viability, T/C (second compound 0.316 µM, first compound 0.01 µM): 74.5%; viability, T/C (second compound 1 µM, first compound 0.00316 µM): 65.4%; viability, T/C (second compound 1 µM, first compound 0.01 µM): 59.9%; viability, T/C (second compound 3.16 µM, first compound 0.00316 µM): 43.6%; viability, T/C (second compound 3.16 µM, first compound 0.01 µM): 56.1%; viability, T/C [16]: 3.48%; viability, T/C (second compound 10 µM, first compound 0.00316 µM): 49.3%; viability, T/C (second compound 10 µM, first compound 0.01 µM): 41.9%; viability, T/C [17]: 39.1%; viability, T/C [18]: 18.2%; viability, T/C [19]: 6.81%; viability, T/C [20]: 3.06%

— PubChem BioAssay AID1963433 (Molecular Pharmacology Branch, DTP, NCI, 2024)
